From a melting point compilation (Tetko et al.; mined from patent text by program, amines drawn as free bases though some values may be those of a salt)

melting point	SMILES
212 to 215 °C	CCOC(=O)c1c(-c2ccncc2)[nH]c(-c2ccncc2)c1CC
204 to 206 °C	O=C(c1ccc2[nH]ccc2c1)N1CCN(CCc2ccc([N+](=O)[O-])cc2)CC1
109 to 110 °C	CCC1(CCCCN2CCN(c3ccc(OC)cc3)CC2)C(=O)Nc2ccccc21 (centres undefined)
140 to 142 °C	OC1(c2cccc(C(F)(F)F)c2)CCN(CCc2ccc3ncccc3c2)CC1
187 to 189 °C	CCOC(=O)c1c[nH]c(=S)n1C1CCc2cc(F)cc(F)c2C1 (centres undefined)
147 °C	CCOC(=O)c1nn(-c2ccc(Br)cc2)c2c1CCCC2
170 °C	CCOC(=O)C1=C(C)NC(N)=C(C(=O)OCC)C1Cc1cccs1 (centres undefined)
79.8 °C	C=CCOc1cc(-n2ncc(C(F)(F)F)c(C)c2=O)c(F)cc1Cl
108 to 110 °C	COC(=O)Cc1ccc(OCCCOc2cc3c(cc2O)CCO3)cc1
106 °C	CCCN(CCCc1c[nH]c2ccc(F)cc12)C1COc2ccc3ncccc3c2C1 (single isomer, unassigned; (+))
117 °C	CCOC(=O)C1=NNC(C)=C(C(=O)OCC)C1c1cccc([N+](=O)[O-])c1 (centres undefined)
104 to 105 °C	CCOC(=NC(=O)c1cccc2ccccc12)c1ccc(Br)cc1
154 to 156 °C	Cn1nc(Cl)cc(Nc2ccn(C3CN(C(=O)OC(C)(C)C)C3)n2)c1=O
129 to 134 °C	CCOC(=O)Cn1cnc(-c2cc(OC)c(OC)c(OC)c2)c1-c1ccc(C(F)(F)F)cc1
164 to 166 °C	CCOC(=O)c1c(N)[nH]c2cc(OC)c(OC)cc12
152 to 153 °C	CCOC(=O)CSc1c(C(=O)OCC)[nH]c2cc(Cl)cc(Cl)c12
101 to 103 °C	COC(=O)c1c(O)c(-c2cccc(C(F)(F)F)c2)nn1C

melting point	SMILES
200 to 202 °C	Cn1ncc(NCCN2CCC(c3noc4cc(F)ccc34)CC2)cc1=O
129 to 130 °C	COC(=O)CCC(NC(=O)Cc1cc(C)c(C(=O)c2ccc(Cl)cc2)n1C)C(=O)OC (centres undefined)
59 °C	CCCCc1ccc(-c2ccc(CCc3cc(F)cc(F)c3)cc2)cc1
254 to 257 °C	CCC1=Nc2cc(CO)ccc2C(=O)C1
286 to 288 °C	O=C(Nc1nc[nH]n1)c1ccc(-c2ccc3nnn(Cc4ccc5ncccc5c4)c3n2)cc1Cl
171 to 173 °C	CP(C)(=O)COC(=O)c1ccc(-n2c(-c3ccccc3)cc3c2-c2ccccc2CC3)cc1
181 °C	CC(=O)Nc1ccc(C(=O)N2CC3CC(CN(Cc4ccc(Cl)cc4)C3)C2)cc1
113 to 115 °C	COC(=O)Cc1cc2c(c([N+](=O)[O-])c1)NCC2
166 to 167 °C	CC(C)OC(=O)N1CCC(NC(=O)N2CCn3c(c(C(N)=O)c(Cl)c3-c3ccccc3)C2)CC1
145 to 148 °C	CC(=O)Oc1ccc2c(C)cc(=O)oc2c1CC(Br)CBr (centres undefined)
90 to 95 °C	CC(=O)NC[C@H]1CN(c2ccc(N3C[C@@H]4C[C@H]3CS4)c(F)c2)C(=O)O1
79 to 80 °C	CCOC(=O)Cc1nc(-c2ccccc2)oc1-c1ccco1
110 to 114 °C	CC(C)c1ccc(N(Cc2cnn(CCO)c2)C(=O)C2CCCc3c(O)cccc32)cc1 (centres undefined)
172 to 180 °C	COC(=O)c1ccc2c(c1)CN(C(=O)c1ccc(-c3ccccc3)cc1)C2
175 °C	COC(=O)C1=C(C)NC(C)=C(C(=O)O)[C@H]1c1cccc2nonc12
110 to 111 °C	CSC(=O)NCc1c[nH]c2ccccc12

The remaining lines, values behind:

SMILES	melting point
CCOP(=O)(OCC)Oc1c(Br)c(C)nc(C)c1-c1ccc(Oc2ccc(OC(F)(F)F)cc2)cc1	80 to 81 °C
Cc1cccc2nc(CSc3ncnc4[nH]cnc34)n(-c3ccccc3Cl)c(=O)c12	228 to 230 °C
O=C(O)COc1cccc2c1Cc1sc(S(=O)(=O)CC=Cc3ccccc3)nc1-2	212 to 214 °C
CCc1ccc(-c2ncccc2S(=O)(=O)Nc2ncc(C)nc2OC)cc1	73 °C
O=C1c2cccc(N(CCO)CCO)c2OC12CC2	74 to 76 °C
COC(=O)NC1(Cl)C=CC=CN1CC(COc1cccc2ccccc12)OC(=O)OC (centres undefined)	133 to 135 °C
CCOCCc1c(O)n2c3c(=O)n(C)c(=O)n(C)c3nc2n(Cc2ccccc2)c1=O	156 to 158 °C
CCS(=O)(=O)Cc1c(Cl)c(Cl)cc2nc(OC)c(OC)nc12	150 to 152 °C
O=C1C=C(NC(=O)C(=O)c2cn(Cc3cc(C(F)(F)F)cc(C(F)(F)F)c3)c3ccccc23)CO1	276 to 278 °C
Clc1ccc(-c2csc(-c3cnccc3Cl)n2)cc1	149 to 150 °C
CC(O)Cn1cc(-c2ccccc2)c2ccccc2c1=O (centres undefined)	162 °C
N#Cc1c(N2CCN(C(=O)c3cccs3)CC2)c2cccnc2n(C2CCCCC2)c1=O	192 °C
NC(=O)c1cc(-c2ccncc2)sc1-c1ccncc1	240 to 242 °C
COc1ccc(C(=O)CCCCCBr)cc1Cl	104 to 106 °C
O=C(c1ccccc1)c1cc(-c2ccncc2)c(N2CCOCC2)s1	122 °C
COC(=O)C1C=CCN2C(=O)C(CCO)(Cc3ccccc3)C(=O)N12 (centres undefined)	148 to 149 °C
CN(C)C1=NS(=O)(=O)c2ccccc21	323 to 324 °C
Cc1cc(OCc2ccccc2)cc(OCc2cccc(OCc3ccc4ccccc4n3)c2)c1C(=O)O	146 to 149 °C
CN1Cc2c(-c3nc(C4CC4)no3)ncn2-c2ccc(F)cc2C1=O	216 to 217 °C
N#Cc1cccc(Oc2ccccc2)c1C#N	110 to 112 °C
COC(=O)c1ccccc1Nc1cccc(N2N=CN(C)N2)c1	106 to 108 °C
CCOC(=O)C(C)(C)Oc1ccc(C=Cc2ccccc2)cc1	55 to 65 °C

SMILES	melting point
FC(F)(F)c1cc(Cc2ccc(Cl)c(C(F)(F)F)c2)ccc1Cl	98 to 101 °C
Cc1ccccc1NC(=O)Nc1ccc(C(=O)N2Cc3ccccc3Cc3ccccc32)cc1	188 to 190 °C
OCc1cn(Cc2ccc(Cl)cc2)nc1CN1CCC(c2ccccc2)(c2ccccc2)CC1	104 to 105 °C
NS(=O)(=O)c1ccc(CCO)s1	70 to 72 °C
N#Cc1ccc(C=NNS(=O)(=O)c2ccccc2)cc1	209 to 213 °C
O=C(c1ccccn1)c1nsc2nccn12	147 to 148 °C
CS(=O)c1cc(CCC(=O)OC(C)(C)C)nc(-c2nc(=O)c3ccccc3s2)c1 (centres undefined)	160 °C
CCCCc1cc2cc([N+](=O)[O-])ccc2n1C	77 °C
COC(=O)c1cc(-c2nc(COc3ccc(CO)cc3OC)c(C)o2)ccc1OS(C)(=O)=O	126 to 127 °C
C=CC(=O)c1c(-c2ccccc2)[nH]c2ccccc12	145 to 146 °C
O=[N+]([O-])c1cc2nc(O)c(O)nc2c2c([N+](=O)[O-])cccc12	> 300 °C
CN(C)CC(C)(CSC(=S)N(C)C)[N+](=O)[O-] (centres undefined)	75.5 to 78 °C
N#Cc1ccc(N2C(=O)C=C(O)C2Cc2ccccc2)cc1Cl (centres undefined)	188 to 189 °C
CN1CCC(O)(c2ccccc2Cc2ccccc2)C1 (centres undefined)	108 to 109 °C
CN(Cc1ccccc1)Cc1ccc(N)cc1	48 to 50 °C
CSCCNC(=O)N(C)c1cnc(-c2cncc(F)c2)s1	117 to 119 °C
CC(C)(Cc1c(Sc2ccccc2)c2cc(-c3ccccc3)ccc2n1Cc1ccc(Cl)cc1)C(=O)O	182 to 183 °C
O=S(=O)(Nc1cccc2cc(-c3ncns3)[nH]c12)c1cccs1	232 to 233 °C
O=C(NNC(=O)c1ccccc1Cl)c1ccccc1Cl	217 to 219 °C
COc1cccc(Sc2cccc([N+](=O)[O-])c2C#N)c1	144 to 147 °C
O=C(O)c1cc(Cl)c(O)c(O)c1Cl	230 to 231 °C
CC(C)(C)CNc1nc(C#N)nc2ccc(OCc3cccnc3)cc12	156 to 158 °C

SMILES	melting point
CSC(=N)N(c1ccccc1)c1ccccc1	104 to 106 °C
O=c1cc(OCc2ccccc2)c2ccc(OCCc3ccc(F)cc3)cc2o1	120 °C
CC(=O)c1cnc(Cl)c(Cl)c1	80 °C
COc1cccc2c1-c1ccc3c(c1C(O)O2)C(C)=CC(C)(C)N3 (centres undefined)	184 to 185 °C
Cc1c(C#N)c(C(F)(F)F)nn1-c1c(Cl)cc(C(F)(F)F)cc1Cl	90 to 92 °C
CCn1c(=O)ccc2cnc(Nc3ccc(OCCOC)cc3)nc21	169 to 171 °C
CS(=O)(=O)O[C@@H]1C[C@@H](C(N)=O)N(C(=O)OCc2ccc([N+](=O)[O-])cc2)C1	150 to 151 °C
CCOC(=O)C1OC(n2cnc3c(N)ncnc32)C(O)C1N (centres undefined)	179 to 182 °C
Cc1ccc(S(=O)(=O)NC(=O)Nc2c(Br)cc(Br)cc2Br)cc1	230 °C
O=Cc1ccc(OCc2ccsc2)cc1OC(C(=O)O)c1ccccc1 (racemic)	172 to 174 °C
CN1C(=O)C2C3C=CC(C3)C2(c2cccc(Cl)c2)C1=O (centres undefined)	98 to 100 °C
O=C1OCc2c1cc1ccc3c(c1c2-c1ccc(OC(F)(F)F)cc1)OCO3	222 to 225 °C
Nc1ncnc2c1c(-c1ccc(Oc3ccc(OCCO)cc3)cc1)cn2CCO	166 °C
CN(C)C1(c2ccccc2)CCC(c2cc3ccccc3n2S(=O)(=O)c2ccccc2)CC1 (centres undefined)	139 to 142 °C
CCn1cncc1/C=C/c1cn(-c2ccccc2)nc1OCc1ccc(OCc2nc(-c3ccc(CC(=O)O)cc3)oc2C)c(OC)c1	149 to 150 °C
COCC1OC(OC(C)=O)C(OC(C)=O)C(OC(C)=O)C1OC(C)=O (centres undefined)	102 to 103 °C
CN(CC(CCOS(C)(=O)=O)c1ccc(Cl)c(Cl)c1)C(=O)c1ccccc1 (centres undefined)	100 to 102 °C
N#Cc1ccccc1CSc1nc2cnccc2[nH]1	200 to 202 °C
COC(=O)c1c(C)cc2cc(OC)c(OC)cc2c1-c1ccnc(Br)c1	148 to 150 °C
Cc1cc(S(=O)(=O)NCC(C)C)c2c(C)ccc(C(C)C)cc1-2	117 to 118 °C
C=C(OCCCC)c1ccc(NC(C)=O)nc1	55 to 58 °C
CC(C)(S)CNC(=O)c1ccccc1-c1ccccc1C(=O)O	150 to 153 °C
